Results: article PMC8776063, “Aurora Kinase A Is Involved in Controlling the Localization of Aquaporin-2 in Renal Principal Cells” (International Journal of Molecular Sciences, 2022)
Where two headings read alike, the source gives them in different places.

Key:
[1] = biological target: T1, MERTK (Homo sapiens, UniProt Q12866); assay: Thermal shift assay; type: binding; conditions: read-out: ΔTm MERTK
T1 construct: purchased in-house thermal shift (DSF) kinase panel (SGC Frankfurt); Promega NanoBRET for AURKA/B/C
T1 sequence (Q12866 570-864): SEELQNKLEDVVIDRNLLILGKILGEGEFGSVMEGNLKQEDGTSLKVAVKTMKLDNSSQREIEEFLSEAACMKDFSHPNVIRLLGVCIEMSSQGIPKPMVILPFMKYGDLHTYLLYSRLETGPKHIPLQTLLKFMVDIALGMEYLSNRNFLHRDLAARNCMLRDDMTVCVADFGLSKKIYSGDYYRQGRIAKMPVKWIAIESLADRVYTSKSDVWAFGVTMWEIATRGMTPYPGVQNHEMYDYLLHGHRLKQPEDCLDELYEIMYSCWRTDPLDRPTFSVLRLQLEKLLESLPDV

[2] = biological target: T2, TTK (Homo sapiens, UniProt P33981); assay: Thermal shift assay; type: binding; conditions: read-out: ΔTm TTK
T2 construct: purchased in-house thermal shift (DSF) kinase panel (SGC Frankfurt); Promega NanoBRET for AURKA/B/C
T2 sequence (P33981 519-808): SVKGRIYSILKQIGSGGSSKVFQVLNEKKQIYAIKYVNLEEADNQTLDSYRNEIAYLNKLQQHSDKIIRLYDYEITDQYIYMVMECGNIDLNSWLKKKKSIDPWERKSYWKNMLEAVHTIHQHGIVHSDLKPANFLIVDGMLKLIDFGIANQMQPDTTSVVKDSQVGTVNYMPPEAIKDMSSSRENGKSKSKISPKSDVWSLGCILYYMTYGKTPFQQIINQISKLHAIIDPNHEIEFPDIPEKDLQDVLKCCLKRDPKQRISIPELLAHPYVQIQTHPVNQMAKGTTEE

[3] = test system: primary IMCD cells; assay: AQP2 redistribution, immunofluorescence microscopy; conditions: for inhibition of the AVP-induced redistribution of AQP2 to the plasma membrane: 1 h (Aurora-A inhibitor I 1-30 µM)
[4] = test system: MCD4 cells; assay: F-actin stress fiber staining (phalloidin); type: cell-based, mouse; conditions: compound 30 µM, 1 h
[5] = test system: MCD4 cells; assay: AQP2 redistribution, immunofluorescence microscopy; conditions: forskolin 30 µM, 30 min; for inhibition of the forskolin-induced redistribution of AQP2 to the plasma membrane: compound 30 µM, 1 h (Aurora-A inhibitor I 1-30 µM)
[6] = biological target: T3, ABL1 (Homo sapiens, UniProt P00519); assay: Thermal shift assay; type: binding; conditions: read-out: ΔTm ABL1
T3 construct: purchased in-house thermal shift (DSF) kinase panel (SGC Frankfurt); Promega NanoBRET for AURKA/B/C
T3 sequence (P00519 229-512): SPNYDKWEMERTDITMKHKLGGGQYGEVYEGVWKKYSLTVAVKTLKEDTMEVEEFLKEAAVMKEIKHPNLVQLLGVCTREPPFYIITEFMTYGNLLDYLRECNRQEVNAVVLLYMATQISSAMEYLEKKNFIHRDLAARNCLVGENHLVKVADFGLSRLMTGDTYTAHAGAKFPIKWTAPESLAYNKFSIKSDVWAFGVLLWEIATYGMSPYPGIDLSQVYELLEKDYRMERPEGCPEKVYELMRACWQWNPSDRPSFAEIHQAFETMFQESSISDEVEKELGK

[7] = test system: CFL1 phosphorylation in MCD4 cells; assay: CFL1 phosphorylation, Western blotting; type: cell-based, mouse; conditions: compound 30 µM, 1 h; for CFL1 phosphorylation: absence and presence of forskolin; for CFL1 phosphorylation in combination with forskolin: forskolin 30 µM, 30 min
[8] = biological target: T4, AURKA (Homo sapiens, UniProt O14965); assay: NanoBRET assay in HEK293T cells; type: cell-based
T4 construct: full-length wild-type AURKA, AURKB, and AURKC were obtained as plasmids cloned in frame with a C-terminal NanoLuc-fusion; host or cells: HEK293T
T4 sequence (O14965 1-403): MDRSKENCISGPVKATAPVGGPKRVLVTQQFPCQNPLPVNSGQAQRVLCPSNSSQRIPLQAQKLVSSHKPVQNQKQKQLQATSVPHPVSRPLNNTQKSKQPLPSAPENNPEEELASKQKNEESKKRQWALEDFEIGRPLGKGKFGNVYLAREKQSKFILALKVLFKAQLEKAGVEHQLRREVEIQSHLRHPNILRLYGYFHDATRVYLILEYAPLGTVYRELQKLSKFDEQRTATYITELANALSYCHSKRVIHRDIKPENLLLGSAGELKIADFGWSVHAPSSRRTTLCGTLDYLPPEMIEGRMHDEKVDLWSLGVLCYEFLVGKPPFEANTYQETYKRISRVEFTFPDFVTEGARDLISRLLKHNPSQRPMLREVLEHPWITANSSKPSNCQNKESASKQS

[9] = biological target: T5, PIM1 (Homo sapiens, UniProt P11309); assay: Thermal shift assay; type: binding; conditions: read-out: ΔTm PIM1
T5 construct: purchased in-house thermal shift (DSF) kinase panel (SGC Frankfurt); Promega NanoBRET for AURKA/B/C

[10] = biological target: T6, CHEK2 (Homo sapiens, UniProt O96017); assay: Thermal shift assay; type: binding; conditions: read-out: ΔTm CHEK2
T6 construct: purchased in-house thermal shift (DSF) kinase panel (SGC Frankfurt); Promega NanoBRET for AURKA/B/C

[11] = biological target: T7, MAPK9 (Homo sapiens, UniProt P45984); assay: Thermal shift assay; type: binding; conditions: read-out: ΔTm MAPK9
T7 construct: purchased in-house thermal shift (DSF) kinase panel (SGC Frankfurt); Promega NanoBRET for AURKA/B/C

[12] = biological target: T8, MAP2K6 (Homo sapiens, UniProt P52564); assay: Thermal shift assay; type: binding; conditions: read-out: ΔTm MAP2K6
T8 construct: purchased in-house thermal shift (DSF) kinase panel (SGC Frankfurt); Promega NanoBRET for AURKA/B/C
T8 sequence (P52564 47-334): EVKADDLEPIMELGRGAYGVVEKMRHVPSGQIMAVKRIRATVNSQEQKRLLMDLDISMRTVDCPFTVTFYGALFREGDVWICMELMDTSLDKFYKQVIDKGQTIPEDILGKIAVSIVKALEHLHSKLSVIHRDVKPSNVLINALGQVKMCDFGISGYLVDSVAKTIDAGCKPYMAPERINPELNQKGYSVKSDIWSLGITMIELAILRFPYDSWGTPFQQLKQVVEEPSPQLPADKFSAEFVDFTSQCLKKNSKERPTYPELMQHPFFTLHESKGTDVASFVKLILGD

[13] = biological target: T9, GSK3B (Homo sapiens, UniProt P49841); assay: Thermal shift assay; type: binding; conditions: read-out: ΔTm GSK3B
T9 construct: purchased in-house thermal shift (DSF) kinase panel (SGC Frankfurt); Promega NanoBRET for AURKA/B/C

[14] = biological target: T10, DYRK1A (Homo sapiens, UniProt Q13627); assay: Thermal shift assay; type: binding; conditions: read-out: ΔTm DYRK1A
T10 construct: purchased in-house thermal shift (DSF) kinase panel (SGC Frankfurt); Promega NanoBRET for AURKA/B/C

[15] = biological target: T11, BRAF (Homo sapiens, UniProt P15056); assay: Thermal shift assay; type: binding; conditions: read-out: ΔTm BRAF
T11 construct: purchased in-house thermal shift (DSF) kinase panel (SGC Frankfurt); Promega NanoBRET for AURKA/B/C

[16] = biological target: T12, CSNK2A1 (Homo sapiens, UniProt P68400); assay: Thermal shift assay; type: binding; conditions: read-out: ΔTm CSNK2A1
T12 construct: purchased in-house thermal shift (DSF) kinase panel (SGC Frankfurt); Promega NanoBRET for AURKA/B/C

[17] = compound 20 µM, AVP 100 nM, 30 min
[18] = NanoBRET, HEK293T cells overexpressing the kinase, Table 2, read-out: AURKA IC50

T5 sequence (P11309 whole entry): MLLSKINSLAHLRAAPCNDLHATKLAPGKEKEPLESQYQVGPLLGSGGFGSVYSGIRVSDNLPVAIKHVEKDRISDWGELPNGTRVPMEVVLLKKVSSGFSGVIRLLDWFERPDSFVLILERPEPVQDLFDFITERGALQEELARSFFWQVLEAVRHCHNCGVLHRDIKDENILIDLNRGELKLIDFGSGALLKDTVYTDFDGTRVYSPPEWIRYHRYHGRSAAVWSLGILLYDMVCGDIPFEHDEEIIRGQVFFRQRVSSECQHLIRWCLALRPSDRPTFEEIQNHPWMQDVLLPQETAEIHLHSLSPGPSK
T7 sequence (P45984 whole entry): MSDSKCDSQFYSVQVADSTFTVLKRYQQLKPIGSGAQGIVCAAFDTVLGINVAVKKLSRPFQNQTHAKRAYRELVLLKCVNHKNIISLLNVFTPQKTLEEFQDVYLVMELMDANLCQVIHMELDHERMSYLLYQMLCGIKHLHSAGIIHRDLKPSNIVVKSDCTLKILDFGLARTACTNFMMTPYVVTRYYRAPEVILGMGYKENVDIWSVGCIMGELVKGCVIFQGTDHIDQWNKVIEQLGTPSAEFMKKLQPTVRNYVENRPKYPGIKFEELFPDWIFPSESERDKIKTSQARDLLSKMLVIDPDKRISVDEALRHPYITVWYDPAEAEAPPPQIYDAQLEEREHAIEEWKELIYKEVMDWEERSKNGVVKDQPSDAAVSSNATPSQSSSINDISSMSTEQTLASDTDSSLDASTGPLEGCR
T9 sequence (P49841 35-386): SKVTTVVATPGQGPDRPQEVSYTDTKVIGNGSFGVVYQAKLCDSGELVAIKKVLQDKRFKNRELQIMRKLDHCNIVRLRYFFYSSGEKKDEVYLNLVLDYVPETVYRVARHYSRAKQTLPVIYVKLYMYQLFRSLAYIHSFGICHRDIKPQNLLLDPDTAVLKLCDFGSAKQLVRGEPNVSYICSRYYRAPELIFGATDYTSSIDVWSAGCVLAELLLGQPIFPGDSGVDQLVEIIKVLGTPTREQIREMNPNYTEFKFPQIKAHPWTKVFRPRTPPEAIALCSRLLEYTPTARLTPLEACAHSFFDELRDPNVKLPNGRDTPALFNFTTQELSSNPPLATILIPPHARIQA
T6 sequence (O96017 210-531): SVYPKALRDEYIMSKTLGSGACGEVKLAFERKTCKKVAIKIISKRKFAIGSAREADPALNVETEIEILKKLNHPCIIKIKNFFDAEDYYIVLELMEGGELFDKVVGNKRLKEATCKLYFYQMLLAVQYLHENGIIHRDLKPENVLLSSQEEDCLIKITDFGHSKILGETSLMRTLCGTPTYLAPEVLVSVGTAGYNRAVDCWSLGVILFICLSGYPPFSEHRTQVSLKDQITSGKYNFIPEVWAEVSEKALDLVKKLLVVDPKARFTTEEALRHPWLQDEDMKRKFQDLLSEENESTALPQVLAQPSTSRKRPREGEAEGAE
T11 sequence (P15056 448-723): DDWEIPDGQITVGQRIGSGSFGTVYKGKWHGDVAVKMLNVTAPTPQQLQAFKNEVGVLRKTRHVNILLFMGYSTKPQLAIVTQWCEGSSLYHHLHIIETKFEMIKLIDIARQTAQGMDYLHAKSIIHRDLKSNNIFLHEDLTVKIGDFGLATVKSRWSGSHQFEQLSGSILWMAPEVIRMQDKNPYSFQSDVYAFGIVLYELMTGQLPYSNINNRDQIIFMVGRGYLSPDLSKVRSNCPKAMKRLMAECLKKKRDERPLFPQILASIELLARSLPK
T12 sequence (P68400 1-337): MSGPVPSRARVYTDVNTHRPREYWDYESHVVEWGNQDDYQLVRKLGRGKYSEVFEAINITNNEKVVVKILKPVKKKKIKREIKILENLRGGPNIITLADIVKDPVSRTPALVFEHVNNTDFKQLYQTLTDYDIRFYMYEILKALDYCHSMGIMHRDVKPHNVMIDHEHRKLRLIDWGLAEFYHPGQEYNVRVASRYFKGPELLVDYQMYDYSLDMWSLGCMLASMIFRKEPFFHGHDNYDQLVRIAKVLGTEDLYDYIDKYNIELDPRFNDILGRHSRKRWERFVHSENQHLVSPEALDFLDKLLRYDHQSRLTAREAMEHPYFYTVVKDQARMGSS

SMILES	inhibition of the AVP-induced redistribution of AQP2 to the plasma membrane [3, 17]	effect on actin stress fibers [4]	inhibition of the forskolin-induced redistribution of AQP2 to the plasma membrane [5]	CFL1 phosphorylation [7]	CFL1 phosphorylation in combination with forskolin [7]	ΔTm at 10 µM ([1]; compound 10 µM, n = 3) [°C]	ΔTm at 10 µM ([2]; compound 10 µM, n = 3) [°C]	ΔTm at 10 µM ([6]; compound 10 µM, n = 3) [°C]	IC50 [8, 18] [nM]	ΔTm at 10 µM ([9]; compound 10 µM, n = 3) [°C]	ΔTm at 10 µM ([10]; compound 10 µM, n = 3) [°C]	ΔTm at 10 µM ([11]; compound 10 µM, n = 3) [°C]	ΔTm at 10 µM ([12]; compound 10 µM, n = 3) [°C]	ΔTm at 10 µM ([13]; compound 10 µM, n = 3) [°C]	ΔTm at 10 µM ([14]; compound 10 µM, n = 3) [°C]	ΔTm at 10 µM ([15]; compound 10 µM, n = 3) [°C]	ΔTm at 10 µM ([16]; compound 10 µM, n = 3) [°C]	other results
CCN1CCN(C(=O)Cc2ccc(Nc3ncc(F)c(Nc4ccc(C(=O)Nc5ccccc5Cl)cc4)n3)cc2)CC1 [Aurora-A inhibitor I, reference compound]	inhibits	depolymerization of actin stress fibers	inhibits	significantly decreased	Significant additive effects	–	–	–	–	–	–	–	–	–	–	–	–	ΔTm at 10 µM [1]: 1.7 °C; ΔTm at 10 µM [2]: 1.9 °C; effective concentration for inhibition of AQP2 redistribution ([3]; 1, 10 or 30 µM, 1 h, AVP 100 nM, 30 min): greater than 1 µM; effective concentration for inhibition of AQP2 redistribution ([5]; 1, 10 or 30 µM, 1 h): greater than 1 µM; ΔTm at 10 µM [6]: 3.1 °C; IC50 [8]: 183 nM; ΔTm at 10 µM [9]: 0.2 °C; ΔTm at 10 µM [10]: 2.2 °C; ΔTm at 10 µM [11]: 2.9 °C; ΔTm at 10 µM [12]: 0.6 °C; ΔTm at 10 µM [13]: 3.1 °C; ΔTm at 10 µM [14]: 0.4 °C; ΔTm at 10 µM [15]: 1.1 °C; ΔTm at 10 µM [16]: 1.1 °C
CCN1CCN(C(=O)Cc2ccc(Nc3ncc(F)c(Nc4ccc(C(=O)O)cc4)n3)cc2)CC1 [ERJ2-12]	significantly differed	resembled those of the control cells	not different from that in cells treated with the compound solvent, DMSO	no effect	–	0.3	0.6	2.6	> 50000	1.1	0.3	3	0.8	1	-1.3	0.7	1.3	–
CCN1CCN(C(=O)Cc2ccc(Nc3ncc(F)c(Nc4ccc(C(=O)Nc5ccccc5)cc4)n3)cc2)CC1 [ERJ2-11]	no significant difference between resting and AVP-stimulated cells	promoted or maintained the formation of actin stress fibers	–	–	Significant additive effects	1.7	2.2	3.6	767	0.4	3.6	2.8	0.7	3.6	-0.6	1.8	1.1	AQP2 fluorescence intensity ratio compared to DMSO-treated control cells ([3]; compound 20 µM, 1 h): significant decrease
O=C(Cc1ccc(Nc2ncc(F)c(Nc3ccc(C(=O)Nc4ccccc4Cl)cc3)n2)cc1)NCCN1CCOCC1 [ERJ2-04]	no significant difference between resting and AVP-stimulated cells	Comparable effects	not different from that in cells treated with the compound solvent, DMSO	–	Significant additive effects	0.9	1.8	1.1	–	-0.2	1.2	1.9	0.4	2	-0.7	0.8	1.3	IC50 ([8]; NanoBRET, n = 2, mean, Figure 6B, read-out: affinity to intracellular AURKA): 558 nM
NC(=O)Cc1ccc(Nc2ncc(F)c(Nc3ccc(C(=O)Nc4ccccc4Cl)cc3)n2)cc1 [ERJ2-06]	no significant difference between resting and AVP-stimulated cells	Comparable effects	–	–	Significant additive effects	1.3	2.4	1.7	165	0.2	3.5	2.9	0.8	3.1	0.8	0.5	1.6	–
